The values that follow are results of earlier work, collected in PubChem BioAssay AID1259409 (Chemical Carcinogenesis Research Information System (CCRIS), 2018).

For this data set, the system named is rodent chemically induced tumor inhibition, incidence and multiplicity. As to the kind of experiment: CCRIS tumor inhibitor studies.

Consider `Cc1cc(C(C)(C)C)c(O)c(C(C)(C)C)c1`, for which the “tumour outcome (control, treated, inhibition, significance)” value by setting is: (Carcinogen: 2-ACETYLAMINOFLUORENE, 53-96-3, Dose [Inhibitor]: 0, 3000 PPM IN DIET CONCURRENTLY WITH CARCINOGEN FOR STUDY DURATION (STUDY DURATION: 76 WK), Route [Inhibitor]: ORAL, Species: RAT, Strain/Sex: F344/MALE, Target Tissue: Type of Lesion: LIVER: HEPATOCELLULAR TUMOR, Dose [Carcinogen]: 50 PPM IN DIET FOR 76 WK) 20/20 (100%), 18/18 (100%), 0%, not calculated; (Carcinogen: 2-ACETYLAMINOFLUORENE, 53-96-3, Dose [Inhibitor]: 0, 6000 PPM IN DIET CONCURRENTLY WITH CARCINOGEN FOR STUDY DURATION (STUDY DURATION: 76 WK), Route [Inhibitor]: ORAL, Species: RAT, Strain/Sex: F344/MALE, Target Tissue: Type of Lesion: LIVER: HEPATOCELLULAR TUMOR, Dose [Carcinogen]: 50 PPM IN DIET FOR 76 WK) 20/20 (100%), 19/19 (100%), 0%, not calculated; (Carcinogen: 7,12-DIMETHYLBENZ(A)ANTHRACENE, 57-97-6, Dose [Inhibitor]: 0.3% IN DIET FROM WEANING ONWARD (STUDY DURATION: 6 MO AFTER CARCINOGEN ADMINISTRATION), Route [Inhibitor]: ORAL, Species: RAT, Strain/Sex: SPRAGUE-DAWLEY/FEMALE, Target Tissue: Type of Lesion: MAMMARY GLAND: ADENOCARCINOMA, Dose [Carcinogen]: 10 MG/RAT IN 1 ML STRIPPED CORN OIL, SINGLE DOSE ON D 50 FOLLOWING 24 HR FASTING PERIOD, Promoter: NONE USED) 100%, 55%, 45%, not calculated; (Carcinogen: 7,12-DIMETHYLBENZ(A)ANTHRACENE, 57-97-6, Dose [Inhibitor]: 2500 MG/KG IN DIET STARTING 1 WK AFTER CARCINOGEN AND CONTINUING FOR 30 WK (STUDY DURATION: 30 WK), Route [Inhibitor]: ORAL, Species: RAT, Strain/Sex: SPRAGUE-DAWLEY/FEMALE, Target Tissue: Type of Lesion: MAMMARY GLAND: TUMOR, Dose [Carcinogen]: 8 MG IN 1 ML SESAME OIL ADMINISTERED ONCE, Promoter: NONE USED) 88%, 68%, 23%, not significant; (Carcinogen: 7,12-DIMETHYLBENZ(A)ANTHRACENE, 57-97-6, Dose [Inhibitor]: 5000 MG/KG IN DIET STARTING 1 WK AFTER CARCINOGEN AND CONTINUING FOR 30 WK (STUDY DURATION: 30 WK), Route [Inhibitor]: ORAL, Species: RAT, Strain/Sex: SPRAGUE-DAWLEY/FEMALE, Target Tissue: Type of Lesion: MAMMARY GLAND: TUMOR, Dose [Carcinogen]: 8 MG IN 1 ML SESAME OIL ADMINISTERED ONCE, Promoter: NONE USED) 88%, 72%, 18%, not significant; (Carcinogen: 7,12-DIMETHYLBENZ(A)ANTHRACENE, 57-97-6, Dose [Inhibitor]: 5000 MG/KG IN DIET STARTING 2 WK BEFORE UNTIL 1 WK AFTER CARCINOGEN ADMINISTRATION (STUDY DURATION: 32 WK), Route [Inhibitor]: ORAL, Species: RAT, Strain/Sex: SPRAGUE-DAWLEY/FEMALE, Target Tissue: Type of Lesion: MAMMARY GLAND: TUMOR, Dose [Carcinogen]: 8 MG IN 1 ML SESAME OIL ADMINISTERED ONCE, Promoter: NONE USED) 88%, 52%, 41%, p<0.01. Moreover, the “tumour outcome (control, treated, inhibition, significance)” value is, setting by setting: (Carcinogen: 7,12-DIMETHYLBENZ[A]ANTHRACENE, 57-97-6, Dose [Inhibitor]: 0, 200 MG/KG BW/D FOR 3 WK BEGINNING 2 WK PRIOR TO CARCINOGEN DOSE (STUDY DURATION: 24 WK), Route [Inhibitor]: INTRAPERITONEAL, Species: RAT, Strain/Sex: SPRAGUE-DAWLEY/FEMALE, Target Tissue: Type of Lesion: MAMMARY GLAND: TUMOR, Dose [Carcinogen]: 33.3 MG/KG BW IN 0.25 ML CORN OIL ONCE AT 50 D OF AGE, Promoter: NONE USED) 91%, 56%, 38%, not calculated; (Carcinogen: 7,12-DIMETHYLBENZ[A]ANTHRACENE, 57-97-6, Dose [Inhibitor]: 0.3% IN DIET, DAILY BEFORE, SIMULTANEOUS WITH, AND THROUGHOUT THE EXPERIMENT, HIGH POLYUNSATURATED FAT DIET (STUDY DURAT, Route [Inhibitor]: ORAL, Species: RAT, Strain/Sex: SPRAGUE-DAWLEY/FEMALE, Target Tissue: Type of Lesion: MAMMARY GLAND: PARENCHYMAL CARCINOMA, Dose [Carcinogen]: 10 MG IN 1 ML CORN OIL AT 50 D OF AGE ONCE, Promoter: NONE USED) 30/30 (100%), 16/30 (53%), 47%, not calculated; (Carcinogen: 7,12-DIMETHYLBENZ[A]ANTHRACENE, 57-97-6, Dose [Inhibitor]: 0.3% IN DIET, DAILY BEFORE, SIMULTANEOUS WITH, AND THROUGHOUT THE EXPERIMENT, HIGH SATURATED FAT DIET (STUDY DURATION: 3, Route [Inhibitor]: ORAL, Species: RAT, Strain/Sex: SPRAGUE-DAWLEY/FEMALE, Target Tissue: Type of Lesion: MAMMARY GLAND: PARENCHYMAL CARCINOMA, Dose [Carcinogen]: 10 MG IN 1 ML CORN OIL AT 50 D OF AGE ONCE, Promoter: NONE USED) 23/30 (77%), 9/30 (30%), 60%, not calculated; (Carcinogen: 7,12-DIMETHYLBENZ[A]ANTHRACENE, 57-97-6, Dose [Inhibitor]: 0.3% IN DIET, DAILY BEFORE, SIMULTANEOUS WITH, AND THROUGHOUT THE EXPERIMENT, LOW FAT DIET (STUDY DURATION: 32 WK), Route [Inhibitor]: ORAL, Species: RAT, Strain/Sex: SPRAGUE-DAWLEY/FEMALE, Target Tissue: Type of Lesion: MAMMARY GLAND: PARENCHYMAL CARCINOMA, Dose [Carcinogen]: 10 MG IN 1 ML CORN OIL AT 50 D OF AGE ONCE, Promoter: NONE USED) 13/30 (43%), 10/30 (33%), 23%, not calculated; (Carcinogen: 7,12-DIMETHYLBENZ[A]ANTHRACENE, 57-97-6, Dose [Inhibitor]: 0.3% IN HIGH POLYUNSATURATED FAT DIET DAILY STARTING 29 D BEFORE CARCINOGEN TREATMENT AND CONTINUING FOR THE DURATION OF, Route [Inhibitor]: ORAL, Species: RAT, Strain/Sex: SPRAGUE-DAWLEY/FEMALE, Target Tissue: Type of Lesion: MAMMARY GLAND: ADENOCARCINOMA, Dose [Carcinogen]: 10 MG IN 1 ML STRIPPED CORN OIL ONCE AT AGE 50 D, Promoter: NONE USED) 100%, 55%, 45%, not calculated; (Carcinogen: 7,12-DIMETHYLBENZ[A]ANTHRACENE, 57-97-6, Dose [Inhibitor]: 0.3% IN HIGH SATURATED FAT DIET DAILY STARTING 29 D BEFORE CARCINOGEN TREATMENT AND CONTINUING FOR THE DURATION OF THE S, Route [Inhibitor]: ORAL, Species: RAT, Strain/Sex: SPRAGUE-DAWLEY/FEMALE, Target Tissue: Type of Lesion: MAMMARY GLAND: ADENOCARCINOMA, Dose [Carcinogen]: 10 MG IN 1 ML STRIPPED CORN OIL ONCE AT AGE 50 D, Promoter: NONE USED) 65%, 35%, 46%, not calculated. Also, the “tumour outcome (control, treated, inhibition, significance)” value reads like this: (Carcinogen: 7,12-DIMETHYLBENZ[A]ANTHRACENE, 57-97-6, Dose [Inhibitor]: 0.3% IN LOW FAT DIET DAILY STARTING 29 D BEFORE CARCINOGEN TREATMENT AND CONTINUING FOR THE DURATION OF THE STUDY (STUDY, Route [Inhibitor]: ORAL, Species: RAT, Strain/Sex: SPRAGUE-DAWLEY/FEMALE, Target Tissue: Type of Lesion: MAMMARY GLAND: ADENOCARCINOMA, Dose [Carcinogen]: 10 MG IN 1 ML STRIPPED CORN OIL ONCE AT AGE 50 D, Promoter: NONE USED) 35%, 25%, 29%, not calculated; (Carcinogen: 7,12-DIMETHYLBENZ[A]ANTHRACENE, 57-97-6, Dose [Inhibitor]: 1 MG APPLIED ONCE 5 MIN BEFORE DMBA (STUDY DURATION 20 WK), Route [Inhibitor]: DERMAL, Species: MOUSE, Strain/Sex: CD-1/FEMALE, Target Tissue: Type of Lesion: SKIN: PAPILLOMA, Dose [Carcinogen]: 2.56 UG APPLIED ONCE 5 MIN AFTER INHIBITOR, Promoter: 12-O-TETRADECANOYLPHORBOL-13-ACETATE, 16561-29-8) 80%, 58%, 28%, not calculated. Moreover, the outcome (Carcinogen: 2-ACETYLAMINOFLUORENE, 53-96-3, Dose [Inhibitor]: 0, 6000 PPM IN DIET CONCURRENTLY WITH CARCINOGEN FOR STUDY DURATION (STUDY DURATION: 76 WK), Route [Inhibitor]: ORAL, Species: RAT, Strain/Sex: F344/MALE, Target Tissue: Type of Lesion: LIVER: HEPATOCELLULAR CARCINOMA, Dose [Carcinogen]: 50 PPM IN DIET FOR 76 WK) was 4.8, 0.7, 85%, p<0.05.
